Source: patent publication US11364275B2, “Linear lipopeptide paenipeptins and methods of using the same” (priority 2017, dated 2022)
In brackets after ≈: the same amount, converted by molar mass. Where two headings read alike, the source gives them in different places. Where a SMILES comes first, the peptide text is derived from it. [ ]: non-standard residue; d: D form. The star is where a group is joined. Dab = NCC[C@H](N)C(=O)O; Cbz = O=C(OCc1ccccc1)*

Legend:
[1] = test system: K. pneumoniae FDA-CDC AR 0097; conditions: K. pneumoniae AR 0097
[2] = test system: A. baumannii FDA-CDC AR 0083; conditions: A. baumannii AR 0083
[3] = test system: A. baumannii FDA-CDC AR 0070; conditions: A. baumannii AR 0070
[4] = test system: K. pneumoniae FDA-CDC AR 0044; conditions: K. pneumoniae AR 0044
rabbit red blood cells = assay: Hemolytic activity; assay type: cell-based; conditions: for Hemolysis: relative to Triton X-100
Procedure, shortened: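 Washed defibrinated rabbit RBCs in PBS pH 7.2 incubated 30 min at 37 °C with paenipeptin analogues at 16–128 μg/mL final. Released hemoglobin read at 415 nm in the supernatant; % hemolysis relative to 0.1% Triton X-100.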

[5] = test system: A. baumannii FDA-CDC AR 0037; conditions: A. baumannii AR 0037

SMILES: CC[C@H](C)[C@H](NC(=O)[C@H](CCN)NC(=O)OCc1ccccc1)C(=O)N[C@@H](CCN)C(=O)N[C@H](Cc1ccccc1)C(=O)N[C@@H](CC(C)C)C(=O)N[C@@H](CCN)C(=O)N[C@@H](C(=O)N[C@@H](CC(C)C)C(=O)N[C@@H](CO)C(N)=O)C(C)C [Analogue 15] (Cbz-[Dab]I[Dab][dF]L[Dab][dV]LS-NH2)
- MIC of clarithromycin at the presence of PMBN or paenipeptin analogue at 4 μg/ml [1]: 0.0078-0.0156 μg/ml
- MIC of rifampicin at the presence of PMBN or paenipeptin analogue at 4 μg/ml [1]: 0.0019-0.0039 μg/ml
- MIC alone ([1]; 10% FBS): 16 to 32 µg/mL
- MIC alone ([1]; No FBS): >32 µg/mL
- MIC of clarithromycin at the presence of PMBN or paenipeptin analogue at 4 μg/ml [2]: 1-4 μg/ml
- MIC of rifampicin at the presence of PMBN or paenipeptin analogue at 4 μg/ml [2]: 0.0313-0.0625 μg/ml
- MIC alone ([2]; 10% FBS): 4 to 8 µg/mL
- MIC alone ([2]; No FBS): 8 to 16 µg/mL
- MIC alone ([3]; 10% FBS): 0.5 to 1 µg/mL
- MIC alone ([3]; No FBS): ≤0.5 µg/mL
- MIC of clarithromycin at the presence of PMBN or paenipeptin analogue at 4 μg/ml [4]: 0.0078-0.0156 μg/ml
- MIC of rifampicin at the presence of PMBN or paenipeptin analogue at 4 μg/ml [4]: ≤0.0019 μg/ml
- MIC alone ([4]; 10% FBS): 16 to 32 µg/mL
- MIC alone ([4]; No FBS): 32 µg/mL (≈ 28.5 µM)
- Hemolysis (rabbit red blood cells; 16 μg/mL): 0.77 ± 0.15%
- Hemolysis (rabbit red blood cells; 32 μg/mL): 0.41 ± 0.67%
- Hemolysis (rabbit red blood cells; 64 μg/mL): 0.54 ± 0.70%
- hemolytic activity (in words) (rabbit red blood cells; 128 μg/mL): nonhemolytic
- Hemolysis (rabbit red blood cells; 128 μg/mL): 0.65 ± 0.29%
- MIC of rifampicin at the presence of PMBN or paenipeptin analogue at 4 μg/ml [5]: ≤0.0019 μg/ml
- MIC alone ([5]; 10% FBS): 4 µg/mL (≈ 3.56 µM)
- MIC alone ([5]; No FBS): 8 µg/mL (≈ 7.11 µM)
- increase in antibiotic activity of clarithromycin ([5]; analogue at 4 μg/mL): 8192 fold
